Molecules are shown by their SMILES. In brackets after ≈: the same amount, converted by molar mass.

The assay relates to A. baumannii strain ATCC19606. Kind of assay: Minimum inhibitory concentration (MIC) determination, microbroth dilution (CLSI). Type of assay: cell-based. To be noted: Acinetobacter baumannii; A. baumannii ATCC19606; CAMHB; read after 20 hours; >=80% growth inhibition; read-out: ATCC19606 MIC. In a few lines: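 After 20 h at 35±2 °C, MIC taken visually and by OD 600 nm as the lowest concentration giving ≥80% growth inhibition. Bacteria (~5×10^5 CFU/ml) were tested per CLSI microbroth dilution against twofold serial compound dilutions in cation-adjusted Mueller Hinton broth.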
Regarding `COc1cc(-c2cc(Cl)c3c(c2)CNC(=O)[C@H](Cc2c(C)[nH]c4ccccc24)N(C)C(=O)[C@H](CCCCN)NC(=O)[C@H](CCCN)NCc2cccnc2S3)ccn1` [Example 171, (11S,14S,17S)-14-(4-Amino-butyl)-11-(3-amino-propyl)-25-chloro-23-(2-methoxy-pyridin-4-yl)-16-methyl-17-(2-methyl-1H-indol-3-ylmethyl)-2-thia-4,10,13,16,19-pentaaza-tricyclo[19.4.0.0*3,8*]pentacosa-1(25),3(8),4,6,21,23-hexaene-12,15,18-trione], the MIC came out at 0.5 µg/mL (≈ 0.605 µM). Then `CN1C(=O)[C@H](CCCCN)NC(=O)[C@H](CCCN)NCc2cccnc2Sc2c(Cl)cc(-c3ccc(S(C)(=O)=O)cc3)cc2CNC(=O)[C@@H]1Cc1c[nH]c2ccccc12` [Example 172, (11S,14S,17S)-14-(4-Amino-butyl)-11-(3-amino-propyl)-25-chloro-17-(1H-indol-3-ylmethyl)-23-(4-methanesulfonyl-phenyl)-16-methyl-2-thia-4,10,13,16,19-pentaaza-tricyclo[19.4.0.0*3,8*]pentacosa-1(25),3(8),4,6,21,23-hexaene-12,15,18-trione], with 0.5 µg/mL (≈ 0.582 µM); and `CN1C(=O)[C@H](CCCCN)NC(=O)[C@H](CCCN)NCc2cccnc2Sc2c(Cl)cc(-c3cncc(S(C)(=O)=O)c3)cc2CNC(=O)[C@@H]1Cc1c[nH]c2ccccc12` [Example 173, (11S,14S,17S)-14-(4-Amino-butyl)-11-(3-amino-propyl)-25-chloro-17-(1H-indol-3-ylmethyl)-23-(5-methanesulfonyl-pyridin-3-yl)-16-methyl-2-thia-4,10,13,16,19-pentaaza-tricyclo[19.4.0.0*3,8*]pentacosa-1(25),3(8),4,6,21,23-hexaene-12,15,18-trione], with 2 µg/mL (≈ 2.32 µM); and `CN1C(=O)[C@H](CCCCN)NC(=O)[C@H](CCCN)NCc2cccnc2Sc2c(Cl)cc(N3CCC(N)C3)cc2CNC(=O)[C@@H]1Cc1c[nH]c2ccccc12` (stereo partly drawn) [Example 174, (11S,14S,17S)-14-(4-Amino-butyl)-11-(3-amino-propyl)-23-(3-amino-pyrrolidin-1-yl)-25-chloro-17-(1H-indol-3-ylmethyl)-16-methyl-2-thia-4,10,13,16,19-pentaaza-tricyclo[19.4.0.0*3,8*]pentacosa-1(25),3(8),4,6,21,23-hexaene-12,15,18-trione], with 16 µg/mL (≈ 20.3 µM).

`Cc1n[nH]c(C)c1-c1cc(Cl)c2c(c1)CNC(=O)[C@H](Cc1c[nH]c3ccccc13)N(C)C(=O)[C@H](CCCCN)NC(=O)[C@H](CCCN)NCc1cccnc1S2` [Example 175, (11S,14S,17S)-14-(4-Amino-butyl)-11-(3-amino-propyl)-25-chloro-23-(3,5-dimethyl-1H-pyrazol-4-yl)-17-(1H-indol-3-ylmethyl)-16-methyl-2-thia-4,10,13,16,19-pentaaza-tricyclo[19.4.0.0*3,8*]pentacosa-1(25),3(8),4,6,21,23-hexaene-12,15,18-trione]: the MIC worked out at 2 µg/mL (≈ 2.5 µM).

For `CN1C(=O)[C@H](CCCCN)NC(=O)[C@H](CCCN)NCc2cccnc2Sc2c(Cl)cc(-c3ccnc(F)c3)cc2CNC(=O)[C@@H]1Cc1c[nH]c2ccccc12` [Example 177, (11S,14S,17S)-14-(4-Amino-butyl)-11-(3-amino-propyl)-25-chloro-23-(2-fluoro-pyridin-4-yl)-17-(1H-indol-3-ylmethyl)-16-methyl-2-thia-4,10,13,16,19-pentaaza-tricyclo[19.4.0.0*3,8*]pentacosa-1(25),3(8),4,6,21,23-hexaene-12,15,18-trione], the minimal inhibitory concentration (MIC) was 1 µg/mL (≈ 1.25 µM). Then `Cc1ccc(-c2cc3c(cn2)Sc2ncccc2CN[C@@H](CCCN)C(=O)N[C@@H](CCCCN)C(=O)N(C)[C@@H](Cc2c[nH]c4ccccc24)C(=O)NC3)cn1` [Example 178, (7S,10S,13S)-13-((1H-Indol-3-yl)methyl)-10-(4-aminobutyl)-7-(3-aminopropyl)-12-methyl-18-(6-methylpyridin-3-yl)-6,7,9,10,12,13,15,16-octahydrodipyrido[2,3-b:4′,3′-p][1,5,8,11,14]thiatetraazacycloheptadecine-8,11,14(5H)-trione], with 32 µg/mL (≈ 41.9 µM); and `CN1C(=O)[C@H](CCCCN)NC(=O)[C@H](CCCN)NCc2ccccc2Sc2ncc(Cl)cc2CNC(=O)[C@@H]1Cc1c[nH]c2ccccc12` [Example 179], with 32 µg/mL (≈ 45.4 µM); and `CN1C(=O)[C@H](CCCCN)NC(=O)[C@H](CNC(N)=O)NCc2cccnc2Sc2c(Cl)cc(Cl)cc2CNC(=O)[C@@H]1Cc1c[nH]c2ccccc12` [Example 180, [(11S,14S,17S)-14-(4-Amino-butyl)-23,25-dichloro-17-(1H-indol-3-ylmethyl)-16-methyl-12,15,18-trioxo-2-thia-4,10,13,16,19-pentaaza-tricyclo[19.4.0.0*3,8*]pentacosa-1(25),3(8),4,6,21,23-hexaen-11-ylmethyl]-urea], with 1 µg/mL (≈ 1.32 µM). Then `Cc1[nH]c2ccccc2c1C[C@H]1C(=O)NCc2cc(-c3ccncc3)cc(Cl)c2Sc2ncccc2CN[C@@H](CCCN)C(=O)N[C@@H](CCCCN)C(=O)N1C` [Example 181, (11S,14S,17S)-14-(4-Amino-butyl)-11-(3-amino-propyl)-25-chloro-16-methyl-17-(2-methyl-1H-indol-3-ylmethyl)-23-pyridin-4-yl-2-thia-4,10,13,16,19-pentaaza-tricyclo[19.4.0.0*3,8*]pentacosa-1(25),3(8),4,6,21,23-hexaene-12,15,18-trione], with 0.25 µg/mL (≈ 0.314 µM); and `Cc1[nH]c2ccccc2c1C[C@H]1C(=O)NCc2cc(-c3ccnc(Cl)c3)cc(Cl)c2Sc2ncccc2CN[C@@H](CCCN)C(=O)N[C@@H](CCCCN)C(=O)N1C` [Example 182, (11S,14S,17S)-14-(4-Amino-butyl)-11-(3-amino-propyl)-25-chloro-23-(2-chloro-pyridin-4-yl)-16-methyl-17-(2-methyl-1H-indol-3-ylmethyl)-2-thia-4,10,13,16,19-pentaaza-tricyclo[19.4.0.0*3,8*]pentacosa-1(25),3(8),4,6,21,23-hexaene-12,15,18-trione], with 0.5 µg/mL (≈ 0.602 µM). With `Cc1[nH]c2ccccc2c1C[C@H]1C(=O)NCc2cc(-c3ccnc(F)c3)cc(Cl)c2Sc2ncccc2CN[C@@H](CCCN)C(=O)N[C@@H](CCCCN)C(=O)N1C` [Example 183, (11S,14S,17S)-14-(4-Amino-butyl)-11-(3-amino-propyl)-25-chloro-23-(2-fluoro-pyridin-4-yl)-16-methyl-17-(2-methyl-1H-indol-3-ylmethyl)-2-thia-4,10,13,16,19-pentaaza-tricyclo[19.4.0.0*3,8*]pentacosa-1(25),3(8),4,6,21,23-hexaene-12,15,18-trione] the figure was 0.25 µg/mL (≈ 0.307 µM); with `CN1C(=O)[C@H](CCCCN)NC(=O)[C@H](CCC(N)=O)NCc2cccnc2Sc2c(Cl)cc(-c3ccccc3)cc2CNC(=O)[C@@H]1Cc1c[nH]c2ccccc12` [Example 184, 3-[(11S,14S,17S)-14-(4-Amino-butyl)-25-chloro-17-(1H-indol-3-ylmethyl)-16-methyl-12,15,18-trioxo-23-phenyl-2-thia-4,10,13,16,19-pentaaza-tricyclo[19.4.0.0*3,8*]pentacosa-1(25),3(8),4,6,21,23-hexaen-11-yl]-propionamide], 2 µg/mL (≈ 2.51 µM).

Turning to `CN1C(=O)[C@H](CCCCN)NC(=O)[C@H](CCCN)NCc2cccnc2Sc2c(Cl)cc(C#N)cc2CNC(=O)[C@@H]1Cc1c[nH]c2ccccc12` [Example 185, (11S,14S,17S)-14-(4-Amino-butyl)-11-(3-amino-propyl)-25-chloro-17-(1H-indol-3-ylmethyl)-16-methyl-12,15,18-trioxo-2-thia-4,10,13,16,19-pentaaza-tricyclo[19.4.0.0*3,8*]pentacosa-1(25),3(8),4,6,21,23-hexaene-23-carbonitrile], the MIC amounted to 0.5 µg/mL (≈ 0.685 µM). With `Cc1noc(C)c1-c1cc(Cl)c2c(c1)CNC(=O)[C@H](Cc1c[nH]c3ccccc13)N(C)C(=O)[C@H](CCCCN)NC(=O)[C@H](CCCN)NCc1cccnc1S2` [Example 186, (11S,14S,17S)-14-(4-Amino-butyl)-11-(3-amino-propyl)-25-chloro-23-(3,5-dimethyl-isoxazol-4-yl)-17-(1H-indol-3-ylmethyl)-16-methyl-2-thia-4,10,13,16,19-pentaaza-tricyclo[19.4.0.0*3,8*]pentacosa-1(25),3(8),4,6,21,23-hexaene-12,15,18-trione] the figure was 0.5 µg/mL (≈ 0.625 µM). Then `CN1C(=O)[C@H](CCCCN)NC(=O)[C@H](CCCN)NCc2cccnc2Sc2c(Cl)cc(N3CC4CC3CO4)cc2CNC(=O)[C@@H]1Cc1c[nH]c2ccccc12` (stereo partly drawn) [Example 187, (11S,14S,17S)-14-(4-Amino-butyl)-11-(3-amino-propyl)-25-chloro-17-(1H-indol-3-ylmethyl)-16-methyl-23-(2-oxa-5-aza-bicyclo[2.2.1]hept-5-yl)-2-thia-4,10,13,16,19-pentaaza-tricyclo[19.4.0.0*3,8*]pentacosa-1(25),3(8),4,6,21,23-hexaene-12,15,18-trione], with 2 µg/mL (≈ 2.49 µM). With `CN1C(=O)[C@H](CCCCN)NC(=O)[C@H](CCCN)NCc2cccnc2Sc2c(Cl)cc(C#CCOCc3ccccc3)cc2CNC(=O)[C@@H]1Cc1c[nH]c2ccccc12` [Example 188, (11S,14S,17S)-14-(4-Amino-butyl)-11-(3-amino-propyl)-23-(3-benzyloxy-prop-1-ynyl)-25-chloro-17-(1H-indol-3-ylmethyl)-16-methyl-2-thia-4,10,13,16,19-pentaaza-tricyclo[19.4.0.0*3,8*]pentacosa-1(25),3(8),4,6,21,23-hexaene-12,15,18-trione] the figure was 2 µg/mL (≈ 2.35 µM).

For `CN1C(=O)[C@H](CCCCN)NC(=O)[C@H](CCCN)NCc2ccccc2Sc2c(-c3ccccc3)ncc(Cl)c2CNC(=O)[C@@H]1Cc1c[nH]c2ccccc12` [Example 189], the MIC was 4 µg/mL (≈ 5.12 µM).

Values taken from US10030047B2 (Hoffmann-La Roche Inc., priority 2015, dated 2018).
